Results reported in patent publication US12048700B2 (Merck Patent GmbH, priority 2017, dated 2024).
Where two headings read alike, the source gives them in different places.

Key:
[1] = DVS; for removal of water on drying (in words): ten hours of nitrogen purge at room temperature
Method: DVS measurements are typically performed at 25° C. with an SPS11-100n “Sorptions Prüfsystem” from ProUmid (formerly “Projekt Messtechnik”), August-Nagel-Str. 23, 89079 Ulm (Germany).

[2] = Water content of the sample before DVS (TG-FTIR mass loss or Karl Fischer titration)
Method: Thermogravimetric measurements were carried out with a Netzsch Thermo-Microbalance TG 209 coupled to a Bruker FTIR Spectrometer Vector 22 (sample pans with a pinhole, N2 atmosphere, heating rate 10 K/min).
A sample of crystalline monosodium salt according to at least one of the previous examples is investigated by thermogravimetry coupled with infrared spectroscopy (TG-FTIR). Thermogravimetric measurements were done with a sample mass of about 6 mg. […] The same sample is now examined by dynamic vapor sorption analysis (DVS). About 20 mg of sample are placed put into an aluminum sample pan. Humidity change rates of 5% per hour were used. […] The sample was placed on an aluminum holder on top of a microbalance and allowed to equilibrate at 50% RH before starting the pre-defined humidity program in the following way: • (1) 2 hours at 50% relative humidity • (2) 50→0% relative humidity (5%/hour); 10 hours at 0% relative humidity • (3) 0→75% relative humidity (5%/hour); 5 hours at 75% relative humidity • (4) 75→0% relative humidity (5%/hour); 10 hours at 0% relative humidity • (5) 0→50% relative humidity (5%/hour); 2 hours at 50% relative humidity
A sample of crystalline calcium salt of MTHF is examined by Karl Fischer titration to evaluate the water content. […]

[3] = 40° C./75% rh
[4] = 25° C./60% rh
[5] = room temperature; suspension stirred 30 minutes with excess solid
[6] = room temperature; purified/de-ionized water; vigorously agitated and briefly sonicated
Method: 2.535 ml of purified/de-ionized water (for instance water for chromatography) is added to the solid using an adjustable volumetric pipette. The mixture is vigorously agitated at room temperature and briefly sonicated.

CN1c2c(nc(N)[nH]c2=O)NC[C@@H]1CNc1ccc(C(=O)N[C@@H](CCC(=O)[O-])C(=O)O)cc1.[Na+] [5-methyl-(6S)-tetrahydrofolic acid monosodium salt]
hygroscopicity compared with the calcium salt (in words) ([1]; relative humidity 20% to 75%): less hygroscopic
removal of water on drying (in words) ([1]; listed as crystalline monosodium salt, monosodium salt): all the water of the sample is essentially removed
removal of water on drying (in words) ([1]; listed as crystalline sodium salt of 5-methyl-(6S)-tetrahydrofolic acid, monosodium salt): water can essentially be removed
mass loss at 200° C. (TG-FTIR), essentially the water content ([2]; after drying in air at room temperature, sample mass about 6 mg): about 1.3%
5-methyl-(6S)-tetrahydrofolic acid content ([3]; 0 months): 94.7 % w/w
5-methyl-(6S)-tetrahydrofolic acid content ([3]; 3 months): 92.7 % w/w
5-methyl-(6S)-tetrahydrofolic acid content ([3]; 6 months): (81.8)^1 % w/w
5-methyl-(6S)-tetrahydrofolic acid content ([3]; 9 months): 94.8 % w/w
5-methyl-(6S)-tetrahydrofolic acid content ([3]; 12 months): 92.9 % w/w
5-methyl-(6S)-tetrahydrofolic acid content ([4]; 0 months): 94.7 % w/w
5-methyl-(6S)-tetrahydrofolic acid content ([4]; 3 months): 93.0 % w/w
5-methyl-(6S)-tetrahydrofolic acid content ([4]; 6 months): 94.2 % w/w
5-methyl-(6S)-tetrahydrofolic acid content ([4]; 9 months): 95.6 % w/w
5-methyl-(6S)-tetrahydrofolic acid content ([4]; 12 months): 94.1 % w/w

CN1c2c([nH]c(N)nc2=O)NC[C@@H]1CNc1ccc(C(=O)N[C@@H](CCC(=O)[O-])C(=O)[O-])cc1.[Ca+2] [calcium salt of 5-methyl-(6S)-tetrahydrofolic acid]
removal of water on drying (in words) [1]: less than half of the water can be removed
water content (Karl Fischer titration) ([2]; sample before DVS): 12.4%
5-methyl-(6S)-tetrahydrofolic acid content ([3]; 0 months): 80.7 % w/w
5-methyl-(6S)-tetrahydrofolic acid content ([3]; 3 months): 78.5 % w/w
5-methyl-(6S)-tetrahydrofolic acid content ([3]; 6 months): 78.0 % w/w
5-methyl-(6S)-tetrahydrofolic acid content ([3]; 9 months): 78.8 % w/w
5-methyl-(6S)-tetrahydrofolic acid content ([3]; 12 months): 77.8 % w/w
solubility in water [5]: 7100 µg/mL
5-methyl-(6S)-tetrahydrofolic acid content ([4]; 0 months): 80.7 % w/w
5-methyl-(6S)-tetrahydrofolic acid content ([4]; 3 months): 79.0 % w/w
5-methyl-(6S)-tetrahydrofolic acid content ([4]; 6 months): 77.7 % w/w
5-methyl-(6S)-tetrahydrofolic acid content ([4]; 9 months): 78.5 % w/w
5-methyl-(6S)-tetrahydrofolic acid content ([4]; 12 months): 77.9 % w/w
kinetic solubility in water [6]: smaller than 10 mg per 1 ml of water
